Results on 10 compounds are retold here after ChEMBL document CHEMBL1201862, “PubChem BioAssay data set” (2004).

Among the test systems are SK-OV-3; A498; SF-539; NCI-H460; HCT-15; SK-MEL-5; NCI-H522; CCRF-CEM; HCT-116; U-251; MOLT-4; SK-MEL-28; SF-268; HOP-92; MDA-MB-435; SW-620; LOX IMVI; ACHN; OVCAR-3; IGROV-1.
Assay in all cases: DTP human tumour cell line panel, 48 h

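Growth conditions: 96-well plates. Treatment: test compound, 48 hours, 5 concentrations. Analysis: linear interpolation between bracketing concentrations; unreached endpoints set to highest concentration. The concentration for 50% growth inhibition is given as GI50.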 The source made the active and inactive calls. Cut-off read from the data, not from the text of the source: active = GI50 up to about 1.1 µM and inactive = higher.

Usually GI50 stands for the concentration at which growth is held to half of that of the control. Turning to `COC(=O)C1(Cc2ccc(C)cc2)Cc2c(C)cccc2C1=O` (stereo not given), the GI50 in the experiment with SK-OV-3 was 14.5 µM (inactive); with A498, 13.7 µM (inactive); with SF-539, 16.4 µM (inactive); in the experiment with NCI-H460, 17.6 µM (inactive); with HCT-15, 14.2 µM; in the experiment with SK-MEL-5, 12.9 µM (inactive). Also, the GI50 in the experiment on NCI-H522 is 11.2 µM (inactive); with CCRF-CEM, 82 µM (inactive); with HCT-116, 13.3 µM (inactive); in the experiment with U-251, 17.1 µM (inactive); in the experiment with MOLT-4, 20 µM (inactive); with SK-MEL-28, 26 µM (inactive). Further, the GI50 in the experiment with SF-268 was 21.8 µM (inactive); in the experiment on HOP-92, 16.6 µM (inactive); in the experiment with MDA-MB-435, 3.08 µM (inactive); with SW-620, 10.9 µM (inactive); with LOX IMVI it was 18.9 µM (inactive); in the experiment on ACHN, 26.5 µM (inactive). The GI50 in the experiment on OVCAR-3 is 11.7 µM (inactive); in the experiment on IGROV-1, 16.4 µM (inactive).

In the case of `CCCC(=O)OC[n+]1cccc(-c2c(COC(=O)NC(C)C)c(COC(=O)NC(C)C)c3n2CCC3)c1`, the GI50 in the experiment with SK-OV-3 is > 100 µM (inactive); with A498, 28.5 µM (inactive); in the experiment with SF-539, 28.8 µM (inactive); in the experiment on NCI-H460 it was 29.6 µM (inactive); with HCT-15, more than 93.3 µM; in the experiment with SK-MEL-5, 69.7 µM (inactive). The GI50 in the experiment with NCI-H522 is 30.4 µM (inactive); with CCRF-CEM, 9.98 µM (inactive); in the experiment with HCT-116 it was 19.7 µM (inactive); with U-251 it was > 60.7 µM (inactive); with MOLT-4, 13.6 µM (inactive); in the experiment with SK-MEL-28, > 100 µM (inactive). Besides, the GI50 is 32 µM (inactive) in the experiment with SF-268; 32.4 µM (inactive) in the experiment on HOP-92; 98.2 µM (inactive) in the experiment with MDA-MB-435; 48.2 µM (inactive) in the experiment with SW-620; 35.2 µM (inactive) with LOX IMVI; 30.7 µM (inactive) in the experiment on ACHN. The GI50 in the experiment with OVCAR-3 is > 77.8 µM (inactive); with IGROV-1, > 46.3 µM (inactive).

Turning to `O=C(NC(=S)Nc1ccc(Br)cc1)c1ccc2c(c1)Sc1ccccc1S2`, the GI50 in the experiment on SK-OV-3 is 16.7 µM (inactive); in the experiment on A498, 19.6 µM (inactive); in the experiment with SF-539 it was 24.3 µM (inactive); with NCI-H460, 17.9 µM (inactive); with HCT-15 it was 38 µM; in the experiment with SK-MEL-5, 51.1 µM (inactive). The GI50 was 23.1 µM (inactive) in the experiment on NCI-H522; 16.5 µM (inactive) in the experiment on CCRF-CEM; 23.2 µM (inactive) in the experiment with HCT-116; 19 µM (inactive) with U-251; 7.53 µM (inactive) in the experiment on MOLT-4; 78.7 µM (inactive) in the experiment on SK-MEL-28. Moreover, the GI50 in the experiment on SF-268 is 21.9 µM (inactive); in the experiment with HOP-92 it was 15.8 µM (inactive); in the experiment on MDA-MB-435, 94.4 µM (inactive); in the experiment with SW-620, 31.6 µM (inactive); in the experiment with LOX IMVI, 23.3 µM (inactive); with ACHN it was 18.2 µM (inactive). Further, the GI50 was 20.3 µM (inactive) in the experiment on OVCAR-3 and 16.1 µM (inactive) in the experiment on IGROV-1.

For `C[N+](C)(C)/N=C\c1ccc(O)c(O)c1`, the GI50 in the experiment on SK-OV-3 was > 100 µM (inactive); in the experiment with A498, > 100 µM (inactive); in the experiment with SF-539, > 100 µM (inactive); with NCI-H460 it was > 100 µM (inactive); in the experiment on HCT-15, more than 100 µM; with SK-MEL-5 it was > 100 µM (inactive). Moreover, the GI50 in the experiment with NCI-H522 is > 100 µM (inactive); in the experiment on CCRF-CEM, > 100 µM (inactive); in the experiment on HCT-116, > 100 µM (inactive); in the experiment on U-251, > 100 µM (inactive); in the experiment with MOLT-4 it was > 100 µM (inactive); with SK-MEL-28 it was > 59.4 µM (inactive). For the same compound, the GI50 in the experiment with SF-268, with HOP-92, in the experiment with MDA-MB-435, in the experiment on SW-620, with LOX IMVI and with ACHN was > 100 µM (inactive) throughout. In addition, the GI50 in the experiment with OVCAR-3 and with IGROV-1 was > 100 µM (inactive) in each case.

With `CCSC1=N/C(=C\c2ccco2)C(NN)=N1`, the GI50 is > 50 µM (inactive) in the experiment with SK-OV-3; > 50 µM (inactive) with A498; > 50 µM (inactive) in the experiment on SF-539; > 50 µM (inactive) with NCI-H460; more than 50 µM with HCT-15; > 50 µM (inactive) with SK-MEL-5. In addition, the GI50 with NCI-H522, in the experiment on CCRF-CEM, with HCT-116, in the experiment with U-251, in the experiment with MOLT-4 and with SK-MEL-28 was > 50 µM (inactive) in each case. Also, the GI50 with SF-268, in the experiment with HOP-92, in the experiment on MDA-MB-435, in the experiment on SW-620, in the experiment with LOX IMVI and in the experiment with ACHN was > 50 µM (inactive) in each case. The GI50 with OVCAR-3 and with IGROV-1 was > 50 µM (inactive) each time.

Turning to `C/C=C/C=C\C1OC(O)([C@H](CC)C(=O)NC/C=C/C=C(\C)[C@H](OC)C(C)C2OC(\C=C/C=C/C=C(\C)C(=O)c3c(O)ccn(C)c3=O)[C@H](O)[C@@H]2O)C(O)C(O)C1(C)C` (stereo not given in full), the GI50 in the experiment on SK-OV-3 is > 100 µM (inactive); in the experiment with A498 it was > 100 µM (inactive); in the experiment on SF-539 it was > 100 µM (inactive); in the experiment with NCI-H460 it was > 100 µM (inactive); in the experiment on HCT-15, more than 100 µM; with SK-MEL-5, 88.1 µM (inactive). Also, the GI50 is > 100 µM (inactive) in the experiment with NCI-H522; 38.4 µM (inactive) in the experiment with CCRF-CEM; > 100 µM (inactive) with HCT-116; > 100 µM (inactive) in the experiment with U-251; 41.9 µM (inactive) with MOLT-4; > 100 µM (inactive) in the experiment on SK-MEL-28. The GI50 was > 100 µM (inactive) in the experiment on SF-268; > 100 µM (inactive) in the experiment on HOP-92; > 100 µM (inactive) in the experiment with MDA-MB-435; > 100 µM (inactive) in the experiment on SW-620; 69.5 µM (inactive) in the experiment on LOX IMVI; > 100 µM (inactive) with ACHN. Also, the GI50 is > 100 µM (inactive) in the experiment on OVCAR-3 and 82 µM (inactive) with IGROV-1.

Regarding `COc1cc(CNc2nc3ccccc3nc2-c2cccs2)cc(OC)c1OC`, the GI50 was 29.8 µM (inactive) in the experiment with SK-OV-3; 18.6 µM (inactive) in the experiment on A498; 78.5 µM (inactive) in the experiment with SF-539; 10.5 µM (inactive) with NCI-H460; 21.9 µM in the experiment with HCT-15; 12.5 µM (inactive) with SK-MEL-5. Further, the GI50 is 14 µM (inactive) in the experiment with NCI-H522; 13.1 µM (inactive) in the experiment on CCRF-CEM; 22.9 µM (inactive) with HCT-116; 27.6 µM (inactive) in the experiment with U-251; 7.67 µM (inactive) in the experiment on MOLT-4; 32.3 µM (inactive) in the experiment with SK-MEL-28. For the same compound, the GI50 with SF-268 was > 100 µM (inactive); in the experiment with HOP-92 it was 1.26 µM (inactive); with MDA-MB-435, 21.7 µM (inactive); with SW-620, 36.7 µM (inactive); in the experiment with LOX IMVI, 17.7 µM (inactive); with ACHN, 13.9 µM (inactive). Besides, the GI50 in the experiment on OVCAR-3 was 22.6 µM (inactive); in the experiment on IGROV-1, 20.4 µM (inactive).

As to `Nc1ccc(S(=O)(=O)c2ccc(/N=[N+](\[O-])c3ccc(S(=O)(=O)c4ccc(N)cc4)cc3)cc2)cc1`, the GI50 was 24.9 µM (inactive) in the experiment with SK-OV-3; 30.8 µM (inactive) in the experiment with A498; 18.9 µM (inactive) in the experiment with SF-539; 66.5 µM (inactive) in the experiment on NCI-H460; more than 100 µM in the experiment on HCT-15; 44 µM (inactive) in the experiment on SK-MEL-5. Further, the GI50 was 17.9 µM (inactive) in the experiment with NCI-H522; > 100 µM (inactive) in the experiment on CCRF-CEM; 46.5 µM (inactive) with HCT-116; 27.7 µM (inactive) with U-251; > 100 µM (inactive) with MOLT-4; > 80.4 µM (inactive) in the experiment on SK-MEL-28. Also, the GI50 with SF-268 was 15 µM (inactive); in the experiment with HOP-92 it was 10.1 µM (inactive); in the experiment with MDA-MB-435 it was > 100 µM (inactive); with SW-620, > 100 µM (inactive); in the experiment with LOX IMVI, > 60.7 µM (inactive); in the experiment on ACHN, > 60.5 µM (inactive). In addition, the values for the GI50 with OVCAR-3 and with IGROV-1 were 31 µM (inactive) and > 92.9 µM (inactive), respectively.

Take `Nc1ccc(C2SCC(=O)N2NS(=O)(=O)c2cccc(C(=O)O)c2)cc1` (stereo not given): the GI50 in the experiment with SK-OV-3 was > 100 µM (inactive); in the experiment on A498, > 100 µM (inactive); in the experiment on SF-539, > 100 µM (inactive); in the experiment with NCI-H460, > 100 µM (inactive); in the experiment with HCT-15, more than 100 µM; with SK-MEL-5 it was > 100 µM (inactive). For the same compound, the GI50 is > 100 µM (inactive) in the experiment with NCI-H522; 63.8 µM (inactive) in the experiment with CCRF-CEM; > 100 µM (inactive) in the experiment on HCT-116; > 100 µM (inactive) with U-251; > 100 µM (inactive) in the experiment on MOLT-4; > 100 µM (inactive) with SK-MEL-28. The GI50 with SF-268, in the experiment on HOP-92, with MDA-MB-435, in the experiment on SW-620, in the experiment with LOX IMVI and with ACHN was > 100 µM (inactive) each time. Also, the GI50 with OVCAR-3 and in the experiment with IGROV-1 was > 100 µM (inactive) throughout.

As for `CC(=O)OC1CCC2(C)C(=CCC3C2CCC2(C)C(C(C)C(=O)O)CCC32)C1` (stereo not given), the GI50 in the experiment on SK-OV-3 is > 100 µM (inactive); in the experiment on A498, 59.7 µM (inactive); in the experiment with SF-539 it was > 100 µM (inactive); with NCI-H460 it was 63 µM (inactive); in the experiment on HCT-15, 78.5 µM; with SK-MEL-5 it was 70.6 µM (inactive). In addition, the GI50 was 58.6 µM (inactive) in the experiment on NCI-H522; > 100 µM (inactive) with CCRF-CEM; 75.9 µM (inactive) in the experiment on HCT-116; 88.9 µM (inactive) in the experiment with U-251; > 100 µM (inactive) with MOLT-4; > 100 µM (inactive) in the experiment with SK-MEL-28. In addition, the GI50 with SF-268 is > 100 µM (inactive); with HOP-92 it was > 100 µM (inactive); with MDA-MB-435, > 100 µM (inactive); in the experiment with SW-620, > 100 µM (inactive); with LOX IMVI it was > 100 µM (inactive); in the experiment with ACHN it was 59.7 µM (inactive). Further, the GI50 in the experiment with OVCAR-3 and in the experiment on IGROV-1 was > 100 µM (inactive) in each case.
